We go through 15 molecules from US20260297060A1, “COMPOUNDS FOR THE DEGRADATION OF MUTANT BRAF” (C4 THERAPEUTICS, INC., priority 2023, published 2026).

T1 sequence (O95342 whole entry): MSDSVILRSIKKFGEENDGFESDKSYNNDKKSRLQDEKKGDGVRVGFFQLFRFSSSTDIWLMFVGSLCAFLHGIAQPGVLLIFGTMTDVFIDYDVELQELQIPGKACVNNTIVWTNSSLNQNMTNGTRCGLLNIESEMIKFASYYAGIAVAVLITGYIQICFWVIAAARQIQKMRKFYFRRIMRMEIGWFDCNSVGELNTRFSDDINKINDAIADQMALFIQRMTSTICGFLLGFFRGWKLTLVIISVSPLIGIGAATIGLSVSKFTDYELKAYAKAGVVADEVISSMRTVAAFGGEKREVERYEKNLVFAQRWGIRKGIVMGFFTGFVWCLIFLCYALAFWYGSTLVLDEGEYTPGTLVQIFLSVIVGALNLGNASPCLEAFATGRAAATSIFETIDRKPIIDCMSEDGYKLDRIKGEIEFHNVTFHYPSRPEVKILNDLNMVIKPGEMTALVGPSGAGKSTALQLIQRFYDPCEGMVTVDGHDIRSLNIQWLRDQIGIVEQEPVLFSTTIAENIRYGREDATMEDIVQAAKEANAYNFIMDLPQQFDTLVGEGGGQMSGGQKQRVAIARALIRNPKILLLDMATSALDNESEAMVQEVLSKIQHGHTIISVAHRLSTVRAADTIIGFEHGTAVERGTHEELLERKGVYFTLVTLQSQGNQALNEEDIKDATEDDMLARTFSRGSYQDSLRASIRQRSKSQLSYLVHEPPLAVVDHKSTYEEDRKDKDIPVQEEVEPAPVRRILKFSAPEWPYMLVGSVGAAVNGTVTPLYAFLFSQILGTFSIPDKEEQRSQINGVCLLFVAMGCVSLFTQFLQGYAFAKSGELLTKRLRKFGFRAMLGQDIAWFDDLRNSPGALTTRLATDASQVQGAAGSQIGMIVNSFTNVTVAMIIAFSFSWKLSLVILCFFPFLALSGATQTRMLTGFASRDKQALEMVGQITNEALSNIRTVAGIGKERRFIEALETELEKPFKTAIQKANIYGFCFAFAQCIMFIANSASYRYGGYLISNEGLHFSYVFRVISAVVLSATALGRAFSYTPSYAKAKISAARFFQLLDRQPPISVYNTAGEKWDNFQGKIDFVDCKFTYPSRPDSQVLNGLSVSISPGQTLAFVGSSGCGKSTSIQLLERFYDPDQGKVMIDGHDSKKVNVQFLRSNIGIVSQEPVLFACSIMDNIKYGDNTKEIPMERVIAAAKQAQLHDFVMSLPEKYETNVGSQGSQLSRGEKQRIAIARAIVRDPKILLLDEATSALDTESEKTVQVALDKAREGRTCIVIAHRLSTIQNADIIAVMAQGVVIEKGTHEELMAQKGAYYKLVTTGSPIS

One test has as its target T1, human bile salt export pump (BSEP) efflux transporter (Homo sapiens, UniProt O95342).
T1 construct: purchased SOLVO Biotechnology Charles River Laboratories, Szeged, Hungary; host or cells: HEK293 (inside out membrane vesicles)
Description: BSEP Vesicular Transport Inhibition Assay (IC50 determination). In kind it is biochemical. Particulars: human BSEP (HEK293) vesicles; taurocholate 0.2 μM; 4 mM Mg-ATP; 10 concentrations, 1 replicate. As to the method:
The vesicular transport (VT) assays were performed using inside out membrane vesicles derived from HEK293 cells expressing the specified human bile salt export pump (BSEP) efflux transporter. The membrane vesicles were procured from SOLVO Biotechnology Charles River Laboratories, Szeged, Hungary.
The principle of the assay relies on measuring the accumulation of substrate into inside out vesicles containing the efflux transporter. By utilizing inside out vesicles, the ATP-dependent transport of substrate is directed into the vesicular lumen, where low permeability compounds are then essentially trapped.
For the IC50 screen inhibition assay, 10 concentrations of each compound were tested in the presence of ATP (active transport) in 1 replicate.
The solvent control (DMSO) was tested in the presence of ATP (active transport) and in the presence of AMP (background) in 8 replicates.
Vesicular transport inhibition assays were performed using the specific parameters for each transporter inhibition assay described in Table 53.
Table 54 specifies treatment groups and concentration of compounds, that were examined in the vesicular transport inhibition assay. Detailed data of IC50 screen inhibition assay are shown in Table 55 and detailed data of 1 concentration inhibition assay are shown in Table 56.
The vesicular transport inhibition assay was performed with 4 mM Mg-ATP. For the IC50 screen inhibition assay, 10 concentrations of each compound were tested in the presence of ATP in 1 replicate. For the 1 concentration inhibition assay, 1 concentration of each compound was tested in the presence of ATP (active transport) in 2 replicates. The solvent control (DMSO) was tested in the presence of 4 mM Mg-ATP (active transport) and in the presence of 4 mM AMP (background) in 8 replicates.
The BSEP membrane vesicle suspension was mixed with the ice-cold transport buffer, then the taurocholate probe substrate solution was added (Reaction mixture, 50 μL per well). The compounds were added to the reaction mixture at 1.5-times the final assay concentration. […].
Reaction mixtures and the start reagent (Mg-ATP or AMP in transport buffer) were pre-warmed separately for 15 minutes to reach the incubation temperature of 37° C. […]
The reaction was initiated by the addition of the start reagent (25 μL) to the reaction mixture (diluting the reaction mixture to the final concentration). […] After the 5-minute incubation at 37° C., the reaction was stopped by the addition of 250 μL ice-cold washing mix to each well. […]
The samples were then be transferred to a filter plate and washed with 200 μL cold washing mix5-times to remove any free compounds or taurocholate probe substrate. The amount of taurocholate probe substrate inside the filtered vesicles were determined by liquid scintillation counting. […]
With `CCN(C)S(=O)(=O)Nc1ccc(F)c(Oc2ccc3ncn([C@H]4COC5(CCN(C6CCC(c7cc8c(cc7F)c(N7CCC(=O)NC7=O)nn8C)CC6F)CC5)C4)c(=O)c3c2)c1C#N` (single isomer, unassigned) [Compound 28], the BSEP Inhibition/IC50 worked out at 1.96 µM. With `Cn1nc(N2CCC(=O)NC2=O)c2cc(F)c(N3CC4(CC(N5CCC6(CC5)CC(n5cnc7ccc(Oc8c(F)ccc(NS(=O)(=O)C9CCCC9)c8C#N)cc7c5=O)C6)C4)C3)cc21` [Compound 250, N-[2-cyano-3-[3-[7-[2-[3-(2,4-dioxohexahydropyrimidin-1-yl)-5-fluoro-1-methyl-indazol-6-yl]-2-azaspiro[3.3]heptan-6-yl]-7-azaspiro[3.5]nonan-2-yl]-4-oxo-quinazolin-6-yl]oxy-4-fluoro-phenyl]cyclopentanesulfonamide], the BSEP Inhibition/IC50 is 8.45 µM.

For `CCN(C)S(=O)(=O)Nc1ccc(F)c(Oc2ccc3ncn([C@H]4COC5(CCN(C6CC(c7cc8c(cc7F)c(N7CCC(=O)NC7=O)nn8C)C6)CC5)C4)c(=O)c3c2)c1C#N` (single isomer, unassigned) [Compound 70], the BSEP Inhibition/IC50 was 2.08 µM.

As for `CCN(C)S(=O)(=O)Nc1ccc(F)c(Oc2ccc3ncn(C4CC5(CCN(C6CCC(c7cc8c(cc7F)c(N7CCC(=O)NC7=O)nn8C)CC6F)CC5)C4)c(=O)c3c2)c1C#N` (single isomer, unassigned) [Compound 85], the BSEP Inhibition/IC50 was 9.81 µM. On the same count and under the same terms, then `CCN(C)S(=O)(=O)Nc1ccc(F)c(Oc2ccc3ncc(C4CC5(CCN(C6CC7(C6)CN(c6cc8c(cc6F)c(N6CCC(=O)NC6=O)nn8C)C7)CC5)C4)nc3c2)c1C#N` (stereo not drawn) [Compound 177, 7-[2-cyano-3-[[ethyl(methyl)sulfamoyl]amino]-6-fluoro-phenoxy]-2-[7-[2-[3-(2,4-dioxohexahydropyrimidin-1-yl)-5-fluoro-1-methyl-indazol-6-yl]-2-azaspiro[3.3]heptan-6-yl]-7-azaspiro[3.5]nonan-2-yl]quinoxaline], with 7.36 µM.

The same test, now with this note: human BSEP (HEK293) vesicles; taurocholate 0.2 μM; 4 mM Mg-ATP; 10 concentrations, 1 replicate; in nM.
As to `Cn1nc(N2CCC(=O)NC2=O)c2cc(F)c(N3CC4(CC(N5CCC6(CC5)CC(n5cnc7ccc(Oc8c(F)ccc(NS(=O)(=O)N9CC[C@@H](F)C9)c8C#N)cc7c5=O)C6)C4)C3)cc21` [Compound 261, (3R)-N-[2-cyano-3-[3-[7-[2-[3-(2,4-dioxohexahydropyrimidin-1-yl)-5-fluoro-1-methyl-indazol-6-yl]-2-azaspiro[3.3]heptan-6-yl]-7-azaspiro[3.5]nonan-2-yl]-4-oxo-quinazolin-6-yl]oxy-4-fluoro-phenyl]-3-fluoro-pyrrolidine-1-sulfonamide], the “BSEP Inhibition/IC50” value is on record as more than 40000. Turning to `CCN(C)S(=O)(=O)Nc1ccc(F)c(Oc2ccc3ncn([C@H]4COC5(CCN(C6CC7(C6)CN(c6cc8c(cc6F)c(N6CCC(=O)NC6=O)nn8C)C7)CC5)C4)c(=O)c3c2)c1C#N` [Compound 26, (3R)-3-[6-[2-cyano-3-[[ethyl(methyl)sulfamoyl]amino]-6-fluoro-phenoxy]-4-oxo-quinazolin-3-yl]-8-[2-[3-(2,4-dioxohexahydropyrimidin-1-yl)-5-fluoro-1-methyl-indazol-6-yl]-2-azaspiro[3.3]heptan-6-yl]-1-oxa-8-azaspiro[4.5]decane], the “BSEP Inhibition/IC50” value turned out to be 21770. Turning to `CCN(C)S(=O)(=O)Nc1ccc(F)c(Oc2ccc3ncn(C4CC5(CCN(C6CCN(c7cc8c(cc7F)c(N7CCC(=O)NC7=O)nn8C)CC6)CC5)C4)c(=O)c3c2)c1C#N` [Compound 156, 6-[2-cyano-3-[[ethyl(methyl)sulfamoyl]amino]-6-fluoro-phenoxy]-3-[7-[1-[3-(2,4-dioxohexahydropyrimidin-1-yl)-5-fluoro-1-methyl-indazol-6-yl]-4-piperidyl]-7-azaspiro[3.5]nonan-2-yl]-4-oxo-quinazoline], the “BSEP Inhibition/IC50” value is listed as more than 40000. The same measure, in the same setting: with `CCN(C)S(=O)(=O)Nc1ccc(F)c(Oc2ccc3ncn([C@H]4COC5(CCC(N6CCC(c7cc8c(cc7F)c(N7CCC(=O)NC7=O)nn8C)C(F)(F)C6)CC5)C4)c(=O)c3c2)c1C#N` (single isomer, unassigned) [Compound 38] the figure was 963.6. For `CC(C)S(=O)(=O)Nc1ccc(F)c(Oc2ccc3ncn(C4CC5(CCN(C6CC7(C6)CN(c6cc8c(cc6F)c(N6CCC(=O)NC6=O)nn8C)C7)CC5)C4)c(=O)c3c2)c1C#N` (stereo not drawn) [Compound 273, N-[2-cyano-3-[3-[7-[2-[3-(2,4-dioxohexahydropyrimidin-1-yl)-5-fluoro-1-methyl-indazol-6-yl]-2-azaspiro[3.3]heptan-6-yl]-7-azaspiro[3.5]nonan-2-yl]-4-oxo-quinazolin-6-yl]oxy-4-fluoro-phenyl]propane-2-sulfonamide], the “BSEP Inhibition/IC50” value came to 20580. As to `CCN(C)S(=O)(=O)Nc1ccc(F)c(Oc2ccc3ncn(C4CC5(CCN(C6CC7(C6)CN(c6cc8c(cc6F)c(N6CCC(=O)NC6=O)nn8C)C7)CC5)C4)c(=O)c3c2)c1C#N` (stereo not drawn) [Compound 141, 6-[2-cyano-3-[[ethyl(methyl)sulfamoyl]amino]-6-fluoro-phenoxy]-3-[7-[2-[3-(2,4-dioxohexahydropyrimidin-1-yl)-5-fluoro-1-methyl-indazol-6-yl]-2-azaspiro[3.3]heptan-6-yl]-7-azaspiro[3.5]nonan-2-yl]-4-oxo-quinazoline], the “BSEP Inhibition/IC50” value is listed as more than 40000. On to `CCN(C)S(=O)(=O)Nc1ccc(F)c(Oc2ccc3ncc([C@@H]4COC5(CCN(C6CCC(c7cc8c(cc7F)c(N7CCC(=O)NC7=O)nn8C)CC6)CC5)C4)nc3c2)c1C#N` (single isomer, unassigned) [Compound 54], for which the “BSEP Inhibition/IC50” value was determined as 11010. `CCN(C)S(=O)(=O)Nc1ccc(F)c(Oc2ccc3ncc(C4CC5(CCN(C6CCC(c7cc8c(cc7F)c(N7CCC(=O)NC7=O)nn8C)CC6)CC5)C4)nc3c2)c1C#N` (single isomer, unassigned) [Compound 180, 7-[2-cyano-3-[[ethyl(methyl)sulfamoyl]amino]-6-fluoro-phenoxy]-2-[7-[4-[3-(2,4-dioxohexahydropyrimidin-1-yl)-5-fluoro-1-methyl-indazol-6-yl]cyclohexyl]-7-azaspiro[3.5]nonan-2-yl]quinoxaline]: the “BSEP Inhibition/IC50” value came to 12180. Consider `CN(CCO)S(=O)(=O)Nc1ccc(F)c(Oc2ccc3ncn(C4CC5(CCN(C6CCC(c7cc8c(cc7F)c(N7CCC(=O)NC7=O)nn8C)CC6F)CC5)C4)c(=O)c3c2)c1C#N` (single isomer, unassigned) [Compound 145, 6-[2-cyano-6-fluoro-3-[[2-hydroxyethyl(methyl)sulfamoyl]amino]phenoxy]-3-[7-[4-[3-(2,4-dioxohexahydropyrimidin-1-yl)-5-fluoro-1-methyl-indazol-6-yl]-2-fluoro-cyclohexyl]-7-azaspiro[3.5]nonan-2-yl]-4-oxo-quinazoline], for which the “BSEP Inhibition/IC50” value is given as 21630. Turning to `Cn1nc(N2CCC(=O)NC2=O)c2cc(F)c(N3CC4(CC(N5CCC6(CC5)CC(n5cnc7ccc(Oc8c(F)ccc(NS(=O)(=O)C9CC9)c8C#N)cc7c5=O)C6)C4)C3)cc21` [Compound 260, N-[2-cyano-3-[3-[7-[2-[3-(2,4-dioxohexahydropyrimidin-1-yl)-5-fluoro-1-methyl-indazol-6-yl]-2-azaspiro[3.3]heptan-6-yl]-7-azaspiro[3.5]nonan-2-yl]-4-oxo-quinazolin-6-yl]oxy-4-fluoro-phenyl]cyclopropanesulfonamide], the “BSEP Inhibition/IC50” value is recorded as 12720.
